Test results reported in patent publication US8673587B2, “Methods for identifying allosteric and other novel acyl-coenzyme A:cholesterol acyltransferase inhibitors” (Trustees of Dartmouth College, priority 2010, dated 2014).

Key:
[1] = biological target: T1, HisACAT1/FLAG (recombinant hACAT1) (Homo sapiens, UniProt P35610, M1L); experiment: Ligand binding by change in intrinsic (tryptophan) fluorescence of HisACAT1/FLAG; conditions: for maximal increase in fluorescence peak height with respect to unliganded ACAT1 protein: excitation 295 nm, peak 330 nm
T1 construct: hACAT1 contains 550 amino acids; made in house
T1 sequence (P35610 1-550 M1L): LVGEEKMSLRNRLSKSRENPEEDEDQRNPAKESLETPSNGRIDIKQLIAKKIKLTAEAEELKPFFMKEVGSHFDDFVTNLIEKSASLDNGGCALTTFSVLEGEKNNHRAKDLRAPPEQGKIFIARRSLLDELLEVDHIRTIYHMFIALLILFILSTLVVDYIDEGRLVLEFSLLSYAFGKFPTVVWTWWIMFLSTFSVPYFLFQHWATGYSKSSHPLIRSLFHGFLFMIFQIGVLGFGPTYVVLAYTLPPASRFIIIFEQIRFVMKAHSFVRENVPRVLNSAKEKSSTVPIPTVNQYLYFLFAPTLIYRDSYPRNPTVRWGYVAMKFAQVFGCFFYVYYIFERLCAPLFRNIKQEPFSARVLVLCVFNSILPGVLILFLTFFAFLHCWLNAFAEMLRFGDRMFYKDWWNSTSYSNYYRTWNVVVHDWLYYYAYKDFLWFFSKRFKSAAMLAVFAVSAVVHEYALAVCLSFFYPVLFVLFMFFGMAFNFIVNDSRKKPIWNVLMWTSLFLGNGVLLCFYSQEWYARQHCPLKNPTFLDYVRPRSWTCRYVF
From the text: Fluorescence measurements were generated using an ISS PC1 photocounting fluorescence spectrophotometer (model 90095). This instrument has continuously reproducible slits ranging from 0.4 to 32 nm band-pass. The excitation slit width was set at 2 nm. The wavelength for excitation was set at 295 nm in order to minimize the contribution of tyrosine residues to the fluorescence. Purified HisACAT1/FLAG was concentrated using 30K AMICON centrifugal filters such that the final concentration of the protein was 100-200 ng/μL (1.5-3 μM). Purified protein was stored at −80° C. until used. Unless stated otherwise, the fluorescence measurements were performed at pH 7.8 with 50 mM potassium phosphate, 0.5M KCl, and 8.13 mM CHAPS. Sterol (cholesterol, epicholesterol, coprostanol, and epicoprostanol) was prepared as CHAPS/PC/sterol mixed micelles (with CHAPS at 8.13 mM, PC at 4 mM, and with varying concentrations of sterols as indicated) and stored at 20° C. in the dark until usage. The fatty acyl-CoAs were dissolved in 20 mM sodium acetate at pH 6.4 as a 2 mM stock and stored at −80° C. until used. Before the experiment started, all reagents were kept on ice in the dark. To begin the experiment, 50 μL of mixed micelles without or with sterols was added into a HELLMA microcuvette with 3 mm light path. Twenty-five microliters of ACAT1 protein (in 8.13 mM CHAPS and 0.5 M KCl) was then added and rapidly mixed. Fluorescence was monitored within 15 seconds of adding the enzyme. The sample compartment of the instrument was maintained at 20° C. The fluorescence emission spectrum was scanned in 2 minutes between 310 and 410 nm. The differences in fluorescence intensity at 10 intervals within 325-335 nm were averaged in order to calculate the ΔF value between the ligated protein vs that of the unligated protein.
Binding studies were subsequently conducted by monitoring the effect of increasing concentrations of oleoyl-CoA on the intrinsic fluorescence of HisACAT1/FLAG. […] However, the maximal change in the peak of the spectrum was much smaller (5% with respect to the unliganded protein). […] The data was analyzed for a simple bimolecular dissociation equilibrium using the PRISM program.
Binding experiments were subsequently performed by monitoring the effect of increasing concentrations of cholesterol, from 10 to 600 μM, on the intrinsic fluorescence of HisACAT1/FLAG. […] It was estimated that the cholesterol concentration that caused half-maximal spectral change was 35 μM. […] The changes in the intrinsic fluorescence of ACAT1 caused by cholesterol, epicholesterol, coprostanol, or epicoprostanol as the ligand were also compared.

[2] = biological target: T2, histidine-tagged recombinant human ACAT1 (Homo sapiens, UniProt P35610, M1L); experiment: Steroid (pregnenolone/DHEA/E2) esterification in mixed micelles, ACAT1 as enzyme source; type: biochemical; conditions: for ACAT1 substrate activity: 1 μM [3H]-steroid; for activation of pregnenolone esterification by sterol: sterol at 0.32 mM, 1 μM [3H]-pregnenolone
T2 construct: hACAT-1 cDNA (nucleotide residues 1397-3046, a total of 550 amino acids); made in house; partially purified on a nickel column
T2 sequence (P35610 1-550 M1L): T1 sequence (P35610 1-550 M1L)
From the text: (§1) The method of the present invention was developed in experiments using a mixed micelle enzyme assay system. […] A candidate ACAT inhibitor is an allosteric inhibitor if it is shown in the method of the present invention to inhibit cholesterol-dependent pregnenolone esterification but not to inhibit the basal pregnenolone esterification when cholesterol is absent in the assay mixture. […] In the assay system of the present invention, the source of ACAT was histidine-tagged recombinant human ACAT1 or human ACAT2, stably expressed in Chinese hamster ovary (CHO) cells that lack endogenous ACAT activity. However, one of skill in the art could employ other suitable mammalian cell systems as needed. The enzyme preparations used in the present method were partially purified through the use of nickel column chromatography, as described previously (Liu et al. 2005. Biochem. J. 391:389-397), using cells that stably expressing histidine-tagged recombinant human ACAT1 or human ACAT2 as the enzyme source.
(§2) In developing the method of the present invention, a series of experiments was performed. Pregnenolone is one compound that contains the classical A, B, C, D steroid rings as well as a 3 beta-OH moiety. Based on its structure, pregnenolone may be an ACAT substrate. However, this possibility had not previously been tested experimentally. In the present invention, the activity of pregnenolone was tested by using radiolabeled pregnenolone ([^3H]-pregnenolone) in a mixed micelle enzyme assay mixture that contained the detergent taurocholate (or CHAPS), phosphatidylcholine, and oleyl-coenzyme A bound to bovine serum albumin (BSA). The enzyme used was histidine-tagged human ACAT1 or human ACAT2. The esterification of pregnenolone (i.e., formation of pregnenolone oleate) was monitored by performing lipid extraction to isolate [^3H]-pregnenolone oleate and [^3H]-pregnenolone. [^3H]-pregnenolone oleate was then separated from [^3H]-pregnenolone by using conventional thin-layer chromatography. Levels of [^3H]-pregnenolone oleate formed was measured using a scintillation counter. […] Thus, using ACAT1 as the enzyme source, the esterification of DHEA was examined (FIG. 1C).
A pregnenolone substrate saturation curve was then constructed, with or without addition of cholesterol to the assay mixture, using ACAT1 as the enzyme source (FIG. 2A). […] Then, a DHEA substrate saturation curve was constructed, with cholesterol present.
Further experiments were performed to examine the effect of adding various non-oxysterols, at a concentration of 0.32 mM, on pregnenolone esterification in vitro, with ACAT1 as the enzyme source.
(§3) To assay the enzyme, the pregnenolone/detergent/PC micelles and the cholesterol/detergent/PC micelles were prepared individually as follows: the radiolabeled pregnenolone/PC mixture or the cholesterol/PC mixture was prepared as described previously (Shi et al. 1989. Biochim. Biophys. Acta 982:187-195) and lyophilized to remove residual organic solvents. After lyophilization, the detergent sodium taurocholate (or other detergent such as CHAPS) in Buffer A was added to reach a final concentration of 10 mg/ml. The mixture was purged with nitrogen, followed by sonication until this mixture was clear. The pregnenolone/PC micelles were mixed with the cholesterol/PC micelles such that the cholesterol concentration is at 0 mM or at 0.32 mM, and the radioactive pregnenolone concentration is at 1 μM (specific activity 20 Ci/mmol).

[3] = tested on: amyloid precursor protein (APP); conditions: cited from earlier work
[4] = biological target: T3, histidine-tagged recombinant human ACAT2 (Homo sapiens, UniProt O75908); experiment: Pregnenolone esterification in mixed micelles, ACAT2 as enzyme source; type: biochemical; conditions: ACAT2; for activation of pregnenolone esterification by sterol: sterol at 0.32 mM, 1 μM [3H]-pregnenolone
T3 construct: made in house; partially purified on a nickel column
T3 sequence (O75908 1-522): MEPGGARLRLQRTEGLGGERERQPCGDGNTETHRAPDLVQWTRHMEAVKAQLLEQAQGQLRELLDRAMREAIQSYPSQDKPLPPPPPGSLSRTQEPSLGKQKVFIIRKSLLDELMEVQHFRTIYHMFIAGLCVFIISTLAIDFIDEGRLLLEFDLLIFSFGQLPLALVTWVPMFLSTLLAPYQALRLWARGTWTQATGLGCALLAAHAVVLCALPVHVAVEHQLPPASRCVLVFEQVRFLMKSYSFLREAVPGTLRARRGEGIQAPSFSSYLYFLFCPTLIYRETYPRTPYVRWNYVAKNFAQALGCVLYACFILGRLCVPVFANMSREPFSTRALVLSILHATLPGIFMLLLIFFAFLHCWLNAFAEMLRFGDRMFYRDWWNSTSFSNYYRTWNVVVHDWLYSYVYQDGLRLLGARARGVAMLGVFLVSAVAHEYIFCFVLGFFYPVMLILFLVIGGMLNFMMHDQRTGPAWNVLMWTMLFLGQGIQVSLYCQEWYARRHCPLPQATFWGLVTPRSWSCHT
From the text: as §1, §2, §3

## CCCCCCCCCCCCCCCCCC(=O)SCCNC(=O)CCNC(=O)[C@H](O)C(C)(C)COP(=O)(O)OP(=O)(O)OC[C@H]1O[C@@H](n2cnc3c(N)ncnc32)[C@H](O)[C@@H]1OP(=O)(O)O [stearoyl-CoA]
[1]
  maximal increase in fluorescence peak height with respect to unliganded ACAT1 protein: 5%
[1]; simple bimolecular dissociation equilibrium, PRISM
  dissociation constant: too small to derive a reliable dissociation constant

## C[C@]12CC[C@H](O)CC1=CC[C@@H]1[C@@H]2CC[C@]2(C)C(=O)CC[C@@H]12 [DHEA, dihydroepiandrosterone]
[2]; absence of cholesterol
  ACAT1 substrate activity: did not exhibit ACAT substrate activity
[2]; presence of excess cholesterol (0.32 mM)
  ACAT1 substrate activity: exhibited significant substrate activity
[2]; with cholesterol present in vitro (0.32 mM)
  apparent Km as ACAT1 substrate: too high to be measurable

## CCCCCCCC[C@H](SCCCCCC)C(=O)Nc1c(SC)cc(C)nc1SC [CP113818]
[3]; animal model for AD
  full-length human APP content: did not cause a reduction
[3]; animal models for AD
  processing of APP: inhibit the processing of both human amyloid precursor protein (APP) and mouse APP

## CC[C@H](CC[C@@H](C)[C@H]1CC[C@H]2[C@@H]3CC=C4C[C@@H](O)CC[C@]4(C)[C@H]3CC[C@]12C)C(C)C [Sitosterol]
[2]; ACAT1
  activation of pregnenolone esterification by sterol: not as efficiently as cholesterol
[4]
  activation of pregnenolone esterification by sterol: only slightly activated

## CC(C)CCC[C@@H](C)[C@H]1CC[C@H]2[C@@H]3CC=C4C[C@@H](O)CC[C@]4(C)[C@H]3CC[C@]12C [cholesterol]
[2]; ACAT1, cholesterol added to assay mixture
  activation of pregnenolone esterification: more than 100 fold
[2]; ACAT1
  activation of pregnenolone esterification by sterol: maximal activation
[4]; cholesterol added to assay mixture
  activation of pregnenolone esterification: more than 100 fold
[4]
  activation of pregnenolone esterification by sterol: maximal activation
[1]
  maximal increase in fluorescence peak height with respect to unliganded ACAT1 protein: up to 35%
[1]; ligand 10 to 600 μM, read-out: concentration that caused half-maximal spectral change
  EC50: 35 µM

## CC(C)CCC[C@@H](C)[C@H]1CC[C@H]2[C@@H]3CC=C4C[C@H](O)CC[C@]4(C)[C@H]3CC[C@]12C [Epi-cholesterol]
[2]; ACAT1
  activation of pregnenolone esterification by sterol: much less efficiently than sitosterol
[1]
  maximal increase in fluorescence peak height with respect to unliganded ACAT1 protein: much smaller than those caused by cholesterol
[1]; ligand 10 to 600 μM
  concentration that caused half-maximal spectral change: too small to derive a reliable binding curve

## CC(C)CCCC(C)C1CCC2C3CC=C4CC(O)CCC4(C)C3CCC12C (single isomer, unassigned) [enantiomeric (ent-)cholesterol]
[2]; ACAT1
  activation of pregnenolone esterification by sterol: much less efficiently than sitosterol

## CC(C)[C@@H](C)/C=C/[C@@H](C)[C@H]1CC[C@H]2C3=CC=C4C[C@@H](O)CC[C@]4(C)C3=CC[C@]12C [dehydroergosterol]
[2]; ACAT1
  activation of pregnenolone esterification by sterol: much less efficiently than sitosterol

## CC(C)CC[C@@H](O)[C@@H](C)[C@H]1CC[C@H]2[C@@H]3CC=C4C[C@@H](O)CC[C@]4(C)[C@H]3CC[C@]12C [22R-hydroxy-cholesterol]
[2]; ACAT1
  activation of pregnenolone esterification by sterol: least activation

## CC(C)CCC[C@@H](C)[C@H]1CC[C@H]2[C@@H]3[C@H](O)C=C4C[C@@H](O)CC[C@]4(C)[C@H]3CC[C@]12C [7-alpha-OH-cholesterol]
[2]; ACAT1
  activation of pregnenolone esterification by sterol: least activation
